Experiment [1] is described as follows: Agonist activity at human dopamine D2 receptor expressed in HEK293 cells by mitogenesis assay.
Experiment [2] can be described thus: Antagonist activity at human dopamine D3 receptor expressed in HEK293 cells by mitogenesis assay.
Experiment [3] can be described thus: Antagonist activity at human dopamine D2 receptor expressed in HEK293 cells by mitogenesis assay.

As to `O=C(NC[C@H]1C[C@@H]1CN1CCN(c2cccc(Cl)c2Cl)CC1)c1ccc(-c2ccccn2)cc1` [N-(2-(4-(2,3-dichlorophenyl)piperazin-1-ylmethyl)-trans-cyclopropylmethyl)-4-pyridin-2-ylbenzamide], in experiment [1], the EC50 – broadly, the concentration that produces a half-maximal response – was found to be 150 nM. Also, the half-maximal inhibitory concentration (IC50) (in general, the concentration that inhibits the measured activity by half) in experiment [2] was found to be 14.3 nM; in experiment [3] it was 672 nM.

In experiment [2], `COc1ccccc1N1CCN(CCCCNC(=O)c2ccc(-c3ccccn3)cc2)CC1` [N-(4-(4-(2-methoxyphenyl)piperazin-1-yl)butyl)-4-pyridin-2-ylbenzamide] came in with an IC50 of 2.9 nM.

In experiment [2], `COc1ccccc1N1CCN(CCCCNC(=O)c2ccc3c(c2)Cc2ccccc2-3)CC1` [N-(4-(4-(2-methoxyphenyl)piperazin-1-yl)butyl)-9H-fluorene-2-carboxamide] had a 50% inhibitory concentration (IC50) of 2.2 nM.

As for `O=C(NCCCCN1CCN(c2cccc(Cl)c2Cl)CC1)c1ccc(-c2ccccn2)cc1` [N-{4-[4-(2,3-Dichloro-phenyl)-piperazin-1-yl]-butyl}-4-pyridin-2-yl-benzamide], the EC50 in experiment [1] was found to be 92 nM.

For the origin of these results see BindingDB's records for doi:10.1021/jm0704200.
